Our source for the IC50 and EC50 values is patent US11401278B2, “Macrocyclic indole derivatives” (The Broad Institute, Inc., priority 2017, dated 2022).

SMILES strings stand for the structures. Where two headings read alike, the source gives them in different places.

For one series, the target named is BCL-XL (Homo sapiens (Human), UniProt Q07817). The series can be described thus: Protein-protein interaction assay BCL-XL/Bad BH3 peptide (BCL-XL assay, TR-FRET). The series is classed as binding. The following applies: His-BCL-XL / Bad BH3 peptide, median. The gist of the method: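 His-tagged human BCL-XL (aa 1-212, 1 nM final) was preincubated 10 min at 22 °C with compound (11 concentrations, 0.1 nM–20 μM), then biotinylated Bad BH3 peptide (1 nM) and TR-FRET reagents were added. Incubation: 1 h at 22 °C, then overnight at 4 °C, pH 7 Tris buffer. IC50 from 4-parameter fit of 665/620 ratio.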
Background: In TR-FRET formats the signal depends on donor and acceptor labels being close together.

Series [1] relates to SUDHL10. Kind of series: Induction of caspase-3/7 activity (Assay 4), SUDHL10. As to conditions: caspase-3/7 induction, median. Format: cell-based. The gist of the method:
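DLBCL cells were exposed to compounds for 3 hours at 37 °C, then caspase-3/7 activation was read with Caspase-Glo 3/7 reagent. After subtracting medium-only background, EC50s were derived with fixed C0=1 and the reference compound's maximal induction as plateau.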

The next series has as its system AMO-1. The series can be described thus: Antiproliferation assay (Assay 7), AMO-1. As to conditions: CellTiter-Glo, several values per example, read-out: Antiproli AMO-1 [M] IC50. The series is classed as cell-based. The gist of the method:
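Plate cells in treatment and day 0 reference plates; read day 0 plate with CellTiter-Glo after 10 min; incubate treated plates 72 h at 37° C; read them identically.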

Series [2] relates to SUDHL10. The series can be described thus: Induction of cytotoxicity (Assay 6), SUDHL10. As to conditions: read-out: Cytotox SUDHL10 [M] (median) IC50, CellTiter-Glo, 5 hours, SUDHL10. A general note: In ATP-based viability assays light output follows the ATP content of the culture.

Sequence of BCL-XL (Q07817 other isoform, or with tags, fused parts or gaps): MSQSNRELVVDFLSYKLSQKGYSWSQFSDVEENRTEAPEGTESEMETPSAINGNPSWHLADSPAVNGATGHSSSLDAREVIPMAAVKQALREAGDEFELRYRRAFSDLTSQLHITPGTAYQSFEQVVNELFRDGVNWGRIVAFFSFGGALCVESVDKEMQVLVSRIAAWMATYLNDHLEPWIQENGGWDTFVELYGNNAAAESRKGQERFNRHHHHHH

As a reminder, the IC50 is the concentration needed to halve the response being measured. A word on the EC50: it is the concentration that produces a half-maximal response. With `Cc1c2c(nn1C)CN(C)S(=O)(=O)CCCn1c(C(=O)O)c(CCCOc3ccc(F)c4ccccc34)c3ccc(F)c-2c31` [Example 30, (rac)-13-Fluoro-1-(34(4-fluoronaphthalen-1-yl)oxy)propyl)-8,11,12-trimethyl-5,6,9,11-tetrahydro-4H,8H-pyrazolo[3′,4′:4,5][1]thia[2,8]diazacycloundecino[6,7,8-hi]indole-2-carboxylic acid 7,7-dioxide], the concentration for half-maximal inhibition (IC50) on BCL-XL was greater than 20 µM; in the series with AMO-1 (Homo sapiens, AMO1, 72 h), 7e-06 M; with SUDHL10 [2] (Homo sapiens, SU-DHL10, 5 h), 4.4e-06 M. In addition, in the series with SUDHL10 [1] (Homo sapiens, SU-DHL10, 3 h), the response was half-maximal at 5.6 µM (EC50).

Turning to `Cc1c2c(nn1C)CN(C1CC1)S(=O)(=O)CCCn1c(C(=O)O)c(CCCOc3cccc4ccccc34)c3ccc(Cl)c-2c31` [Example 40, (rac)-4-chloro-14-cyclopropyl-2,3-dimethyl-7-[3-(1-naphthyloxy)propyl]-11,12,14,15-tetrahydro-2H,10H-pyrazolo[3′,4′:4,5][1,2,8]thiadiazacycloundecino[6,7,8-hi]indole-8-carboxylic acid 13,13-dioxide], the half-maximal inhibitory concentration (IC50) at BCL-XL was determined as 19 µM; in the series on AMO-1 (72 hours), 4.9e-06 M; in the series with SUDHL10 [2], 3.9e-06 M. At SUDHL10 [1] (3 hours), this molecule returned an EC50 of 3.3 µM.
